Assay results as given in article PMC8579695, “The Stringent Response Inhibits 70S Ribosome Formation in Staphylococcus aureus by Impeding GTPase-Ribosome Interactions” (mBio, 2021).

Columns and labels:
[1] = test system: RA-GTPases RsgA, RbgA, Era, and HflX; assay: Hydrolysis of pppGpp by the RA-GTPases; format: biochemical, Staphylococcus aureus
Excerpt: It is well characterized that rRNA transcription decreases during the stringent response ([39]). In addition, the GTPase activity of ribosome assembly cofactors is inhibited by (p)ppGpp, both of which contribute to a reduction in mature ribosomes within the cell ([27]). To examine mechanistically how (p)ppGpp-GTPase interactions affect the ability of RA-GTPases to associate with ribosomal subunits, we examined the association of each GTPase to either the 30S or 50S ribosomal subunit in the presence of GDP, GTP, ppGpp, and pppGpp, as well as GMPPNP, a nonhydrolyzable analogue of GTP. […] His-tagged GTPases were preincubated with highly pure, salt-washed 70S S. aureus ribosomes in a low-magnesium buffer to encourage ribosomal subunit dissociation, and the amount of each GTPase associated with each of the subunits was quantified by Western immunoblotting with anti-His antibodies after sucrose gradient separation. […]
GTPase activity assays were performed as previously described ([10]). […] The radioactive spots were exposed to a BAS-MS imaging plate (Fujifilm) and visualized using an LA 7000 Typhoon PhosphorImager (GE Healthcare), and images were quantified using ImageQuant (GE Healthcare).

HflX = HflX (Staphylococcus aureus, UniProt Q2FYY9); assay: GTPase activity assay of wild-type and Atto488-labeled HflX; format: biochemical; settings: 100 μM ppGpp, 1 μM GTP, 0.1 μM RA-GTPase, 0.1 μM 70S ribosomes, 37°C, 60 min
Sequence of HflX (Q2FYY9 entry or part of it): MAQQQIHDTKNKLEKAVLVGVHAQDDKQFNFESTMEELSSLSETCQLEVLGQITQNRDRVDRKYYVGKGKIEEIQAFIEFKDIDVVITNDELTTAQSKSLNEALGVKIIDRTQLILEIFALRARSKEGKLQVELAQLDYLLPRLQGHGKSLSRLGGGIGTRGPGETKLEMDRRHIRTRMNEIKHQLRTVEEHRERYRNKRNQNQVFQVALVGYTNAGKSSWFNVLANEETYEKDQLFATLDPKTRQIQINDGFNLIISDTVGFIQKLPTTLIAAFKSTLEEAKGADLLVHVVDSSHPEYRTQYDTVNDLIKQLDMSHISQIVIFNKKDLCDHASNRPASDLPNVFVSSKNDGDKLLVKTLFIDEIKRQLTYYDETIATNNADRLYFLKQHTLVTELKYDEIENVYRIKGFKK
Excerpt: (§1) To gain further insight into the binding mechanism and how (p)ppGpp reduces the association of RA-GTPases to the ribosomal subunits, we used a stopped-flow technique with fluorescent derivatives of the RA-GTPases (Fig. 3A). Structural predictions of all four RA-GTPases were built by homology modeling using available structures to assess the availability of suitable residues for fluorescence labeling (see Fig. S3A and B) ([43]). Both RbgA and HflX were amenable to covalent linkage to the fluorophore Atto-488 using maleimide chemistry with exposed cysteine residues. […]
(§2) Supplementary file : FIG S3 Labeling sites and GTPase activity of Atto488-labelled proteins. […] Enzymatic activity was monitored by TLC and quantified by using ImageQuant. […]
(§3) GTPase activity assays were performed as previously described ([10]). Briefly, the ability of proteins to hydrolyze GTP was determined by incubating 100 nM recombinant protein with 100 nM S. aureus 70S ribosomes, 1 μM GTP and 2.78 nM [α-^32P]GTP in 40 mM Tris (pH 7.5), 100 mM NaCl (100 mM KCl for RbgA), and 10 mM MgCl2 at 37°C for the indicated times. […] The radioactive spots were exposed to a BAS-MS imaging plate (Fujifilm) and visualized using an LA 7000 Typhoon PhosphorImager (GE Healthcare), and images were quantified using ImageQuant (GE Healthcare).

RbgA = RbgA (Staphylococcus aureus, UniProt A0A0H2XK72); assay: GTPase activity assay of wild-type and Atto488-labeled RbgA; format: biochemical; settings: 100 μM ppGpp, 1 μM GTP, 0.1 μM RA-GTPase, 0.1 μM 70S ribosomes, 37°C, 60 min
Sequence of RbgA (A0A0H2XK72 entry or part of it): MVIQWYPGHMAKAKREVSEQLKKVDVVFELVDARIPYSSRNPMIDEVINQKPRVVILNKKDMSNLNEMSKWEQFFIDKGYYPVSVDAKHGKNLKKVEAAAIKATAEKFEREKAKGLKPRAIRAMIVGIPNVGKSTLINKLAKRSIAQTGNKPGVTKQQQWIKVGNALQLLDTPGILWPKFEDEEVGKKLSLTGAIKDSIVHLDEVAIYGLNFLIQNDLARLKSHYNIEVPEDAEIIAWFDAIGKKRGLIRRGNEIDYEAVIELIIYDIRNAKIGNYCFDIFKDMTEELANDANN
Excerpt: as §1, §2, §3

SMILES: Nc1nc2c(ncn2[C@@H]2O[C@H](COP(=O)(O)OP(=O)(O)OP(=O)(O)O)[C@@H](OP(=O)(O)OP(=O)(O)O)[C@H]2O)c(=O)[nH]1 [pppGpp]
- hydrolysis of pppGpp by the four RA-GTPases [1]: unable to hydrolyze

SMILES: Nc1nc2c(ncn2[C@@H]2O[C@H](COP(=O)(O)OP(=O)(O)O)[C@@H](OP(=O)(O)OP(=O)(O)O)[C@H]2O)c(=O)[nH]1 [ppGpp]
- inhibition of GTPase activity of Atto488-labeled HflX (HflX): can still be inhibited
- inhibition of GTPase activity of Atto488-labeled RbgA (RbgA): can still be inhibited
